Assays:
Assay in all cases: biochemical
Set-up in all cases: DiscoverX KINOMEscan scanMAX competition binding panel, single concentration, percent of control; remaining binding: dose or concentration left out as unconfirmed
Details in all cases: KINOMEscan binding, percent of control; read-out: Table S4_SCANMAX REPORT - related to Fig. 1 / Percent Control
[1] = biological target: T1, ABL1(H396P)-phosphorylated (Homo sapiens, UniProt P00519, H396P)
T1 construct: phosphorylated

CDK4-cyclinD3 = biological target: T2, CDK4-cyclinD3 (Homo sapiens, UniProt P11802)
T2 construct: cyclinD3

CLK2 = CLK2 (Homo sapiens, UniProt P49760)
CSNK1G1 = CSNK1G1 (Homo sapiens, UniProt Q9HCP0)
EGFR(L747-T751del,Sins) = EGFR(L747-T751del,Sins) (Homo sapiens, UniProt P00533, DEL747-750/T751S)
ERK1 = biological target: T3, ERK1 (Homo sapiens, UniProt P27361)
T3 construct: gene MAPK3

FLT3-autoinhibited = FLT3-autoinhibited (Homo sapiens, UniProt P36888)
HIPK3 = HIPK3 (Homo sapiens, UniProt Q9H422)
ITK = ITK (Homo sapiens, UniProt Q08881)
[2] = biological target: T4, JAK1(JH2domain-pseudokinase) (Homo sapiens, UniProt P23458)
T4 construct: JH2domain-pseudokinase

MAK = MAK (Homo sapiens, UniProt P20794)
MARK1 = MARK1 (Homo sapiens, UniProt Q9P0L2)
MAST1 = MAST1 (Homo sapiens, UniProt Q9Y2H9)
MLCK = biological target: T5, MLCK (Homo sapiens, UniProt Q32MK0)
T5 construct: gene MYLK3

MLK1 = biological target: T6, MLK1 (Homo sapiens, UniProt P80192)
T6 construct: gene MAP3K9

MTOR = MTOR (Homo sapiens, UniProt P42345)
STK39 = STK39 (Homo sapiens, UniProt Q9UEW8)
WNK1 = WNK1 (Homo sapiens, UniProt Q9H4A3)
Sequence of WNK1 (Q9H4A3 whole entry): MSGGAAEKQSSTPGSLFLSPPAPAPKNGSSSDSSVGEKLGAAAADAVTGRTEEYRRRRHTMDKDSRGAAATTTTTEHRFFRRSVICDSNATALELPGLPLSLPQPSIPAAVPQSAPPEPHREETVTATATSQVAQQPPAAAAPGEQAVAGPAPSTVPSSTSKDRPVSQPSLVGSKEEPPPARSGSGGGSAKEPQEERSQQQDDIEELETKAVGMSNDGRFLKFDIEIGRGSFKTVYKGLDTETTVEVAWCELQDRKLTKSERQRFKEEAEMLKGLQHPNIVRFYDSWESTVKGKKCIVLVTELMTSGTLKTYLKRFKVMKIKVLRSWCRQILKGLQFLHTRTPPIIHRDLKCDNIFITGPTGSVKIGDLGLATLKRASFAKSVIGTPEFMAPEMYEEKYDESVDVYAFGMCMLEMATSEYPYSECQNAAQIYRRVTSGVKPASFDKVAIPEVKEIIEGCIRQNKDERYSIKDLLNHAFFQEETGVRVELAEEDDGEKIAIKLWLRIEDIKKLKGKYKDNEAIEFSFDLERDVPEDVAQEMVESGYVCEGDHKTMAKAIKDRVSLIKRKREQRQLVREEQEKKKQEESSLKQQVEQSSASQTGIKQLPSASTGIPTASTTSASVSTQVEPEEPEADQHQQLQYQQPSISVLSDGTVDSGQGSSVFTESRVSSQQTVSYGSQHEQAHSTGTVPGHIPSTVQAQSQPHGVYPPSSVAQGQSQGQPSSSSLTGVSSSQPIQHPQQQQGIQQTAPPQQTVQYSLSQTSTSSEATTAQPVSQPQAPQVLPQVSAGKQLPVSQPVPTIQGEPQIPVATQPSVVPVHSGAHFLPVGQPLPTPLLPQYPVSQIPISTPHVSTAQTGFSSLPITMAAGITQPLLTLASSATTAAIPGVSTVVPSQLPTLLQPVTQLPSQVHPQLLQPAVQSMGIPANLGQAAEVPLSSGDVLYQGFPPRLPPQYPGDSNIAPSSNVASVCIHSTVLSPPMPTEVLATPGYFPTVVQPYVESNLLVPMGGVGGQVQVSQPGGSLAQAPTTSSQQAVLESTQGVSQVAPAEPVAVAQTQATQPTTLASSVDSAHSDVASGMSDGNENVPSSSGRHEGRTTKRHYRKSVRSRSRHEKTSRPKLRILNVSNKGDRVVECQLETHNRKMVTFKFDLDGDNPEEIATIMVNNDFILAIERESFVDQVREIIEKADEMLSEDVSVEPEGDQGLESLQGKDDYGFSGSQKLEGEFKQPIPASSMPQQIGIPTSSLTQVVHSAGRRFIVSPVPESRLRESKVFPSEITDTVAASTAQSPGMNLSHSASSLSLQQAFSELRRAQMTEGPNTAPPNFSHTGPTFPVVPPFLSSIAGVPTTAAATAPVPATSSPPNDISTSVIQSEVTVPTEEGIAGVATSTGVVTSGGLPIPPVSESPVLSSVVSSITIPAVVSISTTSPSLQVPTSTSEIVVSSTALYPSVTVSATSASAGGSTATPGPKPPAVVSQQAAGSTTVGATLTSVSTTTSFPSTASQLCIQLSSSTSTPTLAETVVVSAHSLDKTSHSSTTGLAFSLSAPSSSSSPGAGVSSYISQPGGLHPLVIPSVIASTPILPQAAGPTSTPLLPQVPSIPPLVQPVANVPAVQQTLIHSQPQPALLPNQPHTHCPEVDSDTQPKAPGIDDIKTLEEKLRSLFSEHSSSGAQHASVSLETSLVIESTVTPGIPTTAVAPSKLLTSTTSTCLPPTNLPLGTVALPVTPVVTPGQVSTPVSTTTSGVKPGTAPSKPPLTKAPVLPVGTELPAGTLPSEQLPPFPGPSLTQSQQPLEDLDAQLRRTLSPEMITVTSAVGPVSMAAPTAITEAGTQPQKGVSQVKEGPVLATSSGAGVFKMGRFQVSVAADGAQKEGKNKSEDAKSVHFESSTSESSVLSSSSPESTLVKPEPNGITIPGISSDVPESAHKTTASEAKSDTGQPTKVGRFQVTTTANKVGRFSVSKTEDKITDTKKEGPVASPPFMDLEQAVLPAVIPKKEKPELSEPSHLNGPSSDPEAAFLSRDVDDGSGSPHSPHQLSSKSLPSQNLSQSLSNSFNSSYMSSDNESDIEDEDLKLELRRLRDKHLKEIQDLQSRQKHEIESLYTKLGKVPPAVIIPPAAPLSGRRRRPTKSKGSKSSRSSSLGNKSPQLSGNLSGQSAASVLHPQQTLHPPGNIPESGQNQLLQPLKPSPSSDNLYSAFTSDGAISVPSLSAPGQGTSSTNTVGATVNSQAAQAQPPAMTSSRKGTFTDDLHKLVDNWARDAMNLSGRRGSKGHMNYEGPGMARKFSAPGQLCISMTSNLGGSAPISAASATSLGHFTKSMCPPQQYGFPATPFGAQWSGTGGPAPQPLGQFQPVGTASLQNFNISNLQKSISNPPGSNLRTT

T4 sequence (P23458 whole entry): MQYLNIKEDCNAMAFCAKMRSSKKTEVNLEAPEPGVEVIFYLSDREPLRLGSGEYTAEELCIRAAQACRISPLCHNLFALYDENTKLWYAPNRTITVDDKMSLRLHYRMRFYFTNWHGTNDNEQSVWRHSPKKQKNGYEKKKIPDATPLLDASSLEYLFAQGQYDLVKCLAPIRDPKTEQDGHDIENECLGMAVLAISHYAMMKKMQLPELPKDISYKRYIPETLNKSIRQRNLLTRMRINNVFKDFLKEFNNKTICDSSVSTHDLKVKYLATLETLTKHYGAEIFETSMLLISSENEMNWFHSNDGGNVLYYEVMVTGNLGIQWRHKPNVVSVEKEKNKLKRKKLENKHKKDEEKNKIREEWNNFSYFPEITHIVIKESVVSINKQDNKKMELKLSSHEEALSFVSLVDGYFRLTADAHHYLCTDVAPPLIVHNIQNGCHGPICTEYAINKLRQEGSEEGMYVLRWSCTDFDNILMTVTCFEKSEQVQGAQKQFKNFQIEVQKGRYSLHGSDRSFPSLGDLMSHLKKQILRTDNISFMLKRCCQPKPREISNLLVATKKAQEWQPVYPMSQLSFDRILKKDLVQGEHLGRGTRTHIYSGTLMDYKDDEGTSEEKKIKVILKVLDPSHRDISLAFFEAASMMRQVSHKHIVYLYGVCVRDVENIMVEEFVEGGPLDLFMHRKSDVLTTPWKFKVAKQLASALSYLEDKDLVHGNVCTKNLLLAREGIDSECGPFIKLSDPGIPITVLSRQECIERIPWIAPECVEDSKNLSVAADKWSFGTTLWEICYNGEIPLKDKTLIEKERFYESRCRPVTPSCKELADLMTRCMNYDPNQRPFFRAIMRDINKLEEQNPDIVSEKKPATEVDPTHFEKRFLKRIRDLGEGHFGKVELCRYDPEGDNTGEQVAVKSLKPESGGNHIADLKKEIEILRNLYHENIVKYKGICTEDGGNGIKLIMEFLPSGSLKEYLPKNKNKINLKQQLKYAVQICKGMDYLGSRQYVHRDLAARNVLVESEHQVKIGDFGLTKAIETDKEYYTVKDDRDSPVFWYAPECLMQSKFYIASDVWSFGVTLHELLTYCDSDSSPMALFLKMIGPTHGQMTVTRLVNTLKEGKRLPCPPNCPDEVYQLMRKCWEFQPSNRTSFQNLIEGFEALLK
T3 sequence (P27361 whole entry): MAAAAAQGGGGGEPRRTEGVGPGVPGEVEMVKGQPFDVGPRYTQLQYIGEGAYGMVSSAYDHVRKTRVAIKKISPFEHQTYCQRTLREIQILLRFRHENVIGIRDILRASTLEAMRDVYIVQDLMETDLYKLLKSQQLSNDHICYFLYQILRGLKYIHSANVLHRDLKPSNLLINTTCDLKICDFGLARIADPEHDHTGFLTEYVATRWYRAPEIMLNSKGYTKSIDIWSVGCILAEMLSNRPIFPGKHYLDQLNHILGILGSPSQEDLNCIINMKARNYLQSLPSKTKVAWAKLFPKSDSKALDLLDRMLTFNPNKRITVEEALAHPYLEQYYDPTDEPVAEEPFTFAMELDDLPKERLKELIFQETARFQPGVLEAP
T5 sequence (Q32MK0 whole entry): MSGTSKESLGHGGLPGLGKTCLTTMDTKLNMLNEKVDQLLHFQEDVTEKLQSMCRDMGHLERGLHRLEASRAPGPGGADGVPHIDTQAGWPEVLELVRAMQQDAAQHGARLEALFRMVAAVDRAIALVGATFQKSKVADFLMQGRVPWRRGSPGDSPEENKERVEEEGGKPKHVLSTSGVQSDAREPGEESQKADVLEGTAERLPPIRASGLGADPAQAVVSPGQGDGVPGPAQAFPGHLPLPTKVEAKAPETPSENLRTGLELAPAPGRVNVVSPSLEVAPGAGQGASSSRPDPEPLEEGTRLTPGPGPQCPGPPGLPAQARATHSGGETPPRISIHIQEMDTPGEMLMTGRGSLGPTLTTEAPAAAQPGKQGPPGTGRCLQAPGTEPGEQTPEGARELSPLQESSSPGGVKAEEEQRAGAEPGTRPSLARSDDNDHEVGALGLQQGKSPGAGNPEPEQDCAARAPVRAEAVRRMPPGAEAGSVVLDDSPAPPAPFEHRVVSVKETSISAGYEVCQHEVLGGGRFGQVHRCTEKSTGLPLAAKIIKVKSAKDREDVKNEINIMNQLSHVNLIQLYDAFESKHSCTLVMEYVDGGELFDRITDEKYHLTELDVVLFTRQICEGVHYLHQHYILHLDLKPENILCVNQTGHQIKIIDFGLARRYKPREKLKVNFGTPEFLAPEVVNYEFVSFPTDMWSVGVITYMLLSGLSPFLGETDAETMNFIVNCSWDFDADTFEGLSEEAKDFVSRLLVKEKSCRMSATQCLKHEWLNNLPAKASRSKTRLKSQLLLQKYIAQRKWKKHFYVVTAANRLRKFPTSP

Q: Which results are given for `c1ccc2c(c1)Sc1ccccc1N2CCN1CCOCC1` [J54]?
A: remaining binding [1]: 100%; remaining binding (CDK4-cyclinD3): 98%; remaining binding (CLK2): 79%; remaining binding (CSNK1G1): 100%; remaining binding (EGFR(L747-T751del,Sins)): 92%; remaining binding (ERK1): 100%; remaining binding (FLT3-autoinhibited): 100%; remaining binding (HIPK3): 100%; remaining binding (ITK): 100%; remaining binding [2]: 99%; remaining binding (MAK): 31%; remaining binding (MARK1): 94%; remaining binding (MAST1): 100%; remaining binding (MLCK): 79%; remaining binding (MLK1): 97%; remaining binding at 15 µM (MTOR): 100%; remaining binding (STK39): 100%; remaining binding (WNK1): 94%
